Experimental data: PMC6271520, “Isolation and Characterization of an α-Glucosidase Inhibitor from Musa spp. (Baxijiao) Flowers” (Molecules, 2014)
Read-outs that look alike come from different tables or passages of the source.

Legend:
[1] = molecular target: T1, α-Glucosidase from Bacillus stearothermophilus (Geobacillus stearothermophilus, UniProt A0ACH1E9U3); experiment: α-glucosidase inhibitory activity assay (pNPG substrate, PNP release at 405 nm); format: biochemical; settings: for IC50: pH 6.8, 37 °C, 2.5 mmol/L pNPG
T1 sequence (A0ACH1E9U3 entry or part of it): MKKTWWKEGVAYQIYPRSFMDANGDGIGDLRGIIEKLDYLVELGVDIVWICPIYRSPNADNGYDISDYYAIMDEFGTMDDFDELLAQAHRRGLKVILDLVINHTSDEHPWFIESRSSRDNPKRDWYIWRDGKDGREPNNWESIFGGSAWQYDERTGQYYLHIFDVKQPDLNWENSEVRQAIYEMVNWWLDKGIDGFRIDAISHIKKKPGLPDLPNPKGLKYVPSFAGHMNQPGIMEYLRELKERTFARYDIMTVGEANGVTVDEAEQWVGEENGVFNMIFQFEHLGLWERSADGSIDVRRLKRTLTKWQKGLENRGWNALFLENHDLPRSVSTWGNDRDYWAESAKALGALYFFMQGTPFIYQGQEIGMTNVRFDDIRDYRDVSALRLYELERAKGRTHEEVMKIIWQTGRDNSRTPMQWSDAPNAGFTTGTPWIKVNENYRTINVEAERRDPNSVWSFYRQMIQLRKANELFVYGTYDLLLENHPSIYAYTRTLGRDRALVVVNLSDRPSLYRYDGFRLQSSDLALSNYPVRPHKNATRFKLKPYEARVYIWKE
Experimental: Louis, MO, USA). […] All the reagents were of analytical grade. […] Then 0.5 mL of 2.5 mmol/L p-nitrophenyl-α-D-glucopyranoside as the substrate was added to the mixture to start the reaction. The reaction was incubated at 37 °C for 15 min and stopped by adding 1 mL 0.2 mol/L sodium carbonate solution. The α-glucosidase activity was determined by measuring the release of PNP at 405 nm. For the inhibitory activity assay, crude ethanol extracts were dissolved in 50% aqueous dimethyl sulfoxide, while the chloroform, ethyl acetate, and n-butanol fractions and puriﬁed compounds were dissolved in dimethyl sulfoxide. […] The inhibition of the test sample on α-glucosidase was calculated as follows: […] where Acontrol: Absorbance for 100% enzyme activity (+enzyme), Asample: Test sample (+enzyme + inhibitor) and Abackground: Inhibitor background absorbance (−enzyme + inhibitor).

α-glucosidase [2] = molecular target: α-glucosidase; set-up: method as in PMID 17270224; settings: vanillic acid from stem bark of Fagara tessmannii; cited from earlier work
α-glucosidase [3] = molecular target: α-glucosidase; set-up: method as in doi:10.1016/j.phytol.2013.08.005; settings: β-sitosterol isolated from Chrozophora plicata; cited from earlier work
[4] = molecular target: T1, α-Glucosidase from Bacillus stearothermophilus; experiment: Lineweaver–Burk plot analysis of inhibition kinetics of α-glucosidase; format: biochemical; settings: for mode of inhibition: Lineweaver–Burk plot, varying pNPG; for Ki: from Vmax at 12.5 and 50.0 mg/L (compound 5), 400 and 800 mg/L (compounds 3 and 4)
Experimental: The mechanism of the binding of compounds 3, 4 and 5 to α-glucosidase was further studied.
The Ki value was calculated using the values of Vmax obtained at 12.5 and 50.0 mg/L for compound 5 and the values of Vmax obtained at 400 and 800 mg/L for compounds 3 and 4, respectively.
To determine the kinetic mode of inhibition of isolated α-glucosidase inhibitors, Lineweaver–Burk plot analysis was performed. This kinetics study was carried out in the presence and absence of inhibitors with varying concentrations of 4-NPGP as the substrate. The mode of inhibition of the test compounds was assessed on the basis of the inhibitory effects on Km (dissociation constant) and Vmax (maximum reaction velocity) of the enzyme determined using a Lineweaver-Burk plot, which is the double reciprocal plot of the enzyme reaction velocity (V) versus the substrate (p-nitrophenyl β-D-glucopyranoside, pNPG) concentration (1/V versus 1/[pNPG]).

[5] = read-out: IC50 (mg/L) (converted)

IC50 [1, 5]	SMILES	IC50 ([1]; read-out: IC50 (mg/L))	mode of inhibition [4]	further results
1550 µM	C[C@H]1O[C@H](O[C@H]2[C@H](O)[C@@H](O)[C@@H](O[C@H]3[C@H](O)[C@@H](O)C(O)O[C@@H]3CO)O[C@@H]2CO)[C@H](O)[C@@H](O)[C@@H]1N[C@H]1C=C(CO)[C@@H](O)[C@H](O)[C@H]1O (stereo partly drawn) [Acarbose, reference compound]			inhibition at 1500 µg/mL ([1]; at 1.5 mg/mL, read-out: percent inhibition against α-glucosidase): 56.4%
	COc1cc(C(=O)O)ccc1O [Compound 1, Vanillic acid]	11900 µM		IC50 (α-glucosidase [2]): 69.4 ± 0.8 µM
	COc1cc(/C=C/C(=O)O)ccc1O [Compound 2, Ferulic acid]	6480 µM		
	CC[C@H](CC[C@@H](C)[C@H]1CC[C@H]2[C@@H]3CC=C4C[C@@H](O)CC[C@]4(C)[C@H]3CC[C@]12C)C(C)C [Compound 3, β-Sitosterol]	684 µM	competitive inhibitors	IC50 (α-glucosidase [3]): 287.1 ± 0.75 µM; Ki ([4]; read-out: inhibition constant (Ki)): 48.4 µM
429 µM	CC[C@H](CC[C@@H](C)[C@H]1CC[C@H]2[C@@H]3CC=C4C[C@@H](O[C@@H]5O[C@H](CO)[C@@H](O)[C@H](O)[C@H]5O)CC[C@]4(C)[C@H]3CC[C@]12C)C(C)C [Compound 4, Daucosterol]		competitive inhibitors	Ki ([4]; read-out: inhibition constant (Ki) (converted)): 4.06 µM
